Measurements as given in paper PMC9960827, “Cloning and Characterization of Trypanosoma congolense and T. vivax Nucleoside Transporters Reveal the Potential of P1-Type Carriers for the Discovery of Broad-Spectrum Nucleoside-Based Therapeutics against Animal African Trypanosomiasis” (International Journal of Molecular Sciences, 2023).
Several values for one entry are separate records, joined by “and”; a condition that tells them apart may be missing. Identical values can stand only once. Like-named read-outs stand apart in the source and are kept apart here.

What was measured:
L. mexicana Cas9 = experiment: Resazurin drug sensitivity assay, LmexCas9; type: cell-based, Leishmania mexicana; settings: read-out: LmexCas9 EC50
Description: (§1) EC50 values were determined by plotting to an equation for a sigmoid curve with variable slope (GraphPad Prism 8). All values were the average of at least three independent determinations on different days.

L. mexicana SUPKO+TcoAT1 = experiment: microbe, parasite or virus in culture; type: cell-based, Leishmania mexicana; settings: for EC50: read-out: SUPKO+TcoAT1 EC50
Description: as §1

L. mexicana SUPKO = experiment: microbe, parasite or virus in culture; type: cell-based, Leishmania mexicana
Description: as §1

L. mexicana SUPKO+TvxNT3 = experiment: microbe, parasite or virus in culture; type: cell-based, Leishmania mexicana; settings: for EC50: read-out: SUPKO+TvxNT3 EC50
Description: as §1

TcoAT1 = type: cell-based, Trypanosoma congolense; settings: for Ki: 0.05 µM [3H]-adenosine, 10 s, IC50 converted to Ki, read-out: Ki on the transport of [3H]-adenosine; for ΔG0: Gibbs free energy of binding, from Km or Ki; for δ(ΔG0): loss of Gibbs free energy of binding relative to the parent nucleoside
Source text: (§2) The information for the T. congolense adenosine transporter (TcoAT1) and four putative T. vivax nucleoside transporters was obtained in the TritrypDB (tritrypdb.org/tritrypdb) genome database. Primers were designed to flank each gene upstream of the 5′ end (forward) and downstream of the 3′ end (reverse) as described (primer sequences in Supplementary Table S2). Following amplification from the genomic DNA of T. congolense or T. vivax, DNA for each extracted gene was ligated into the pNUS-HcN expression vector doubly digested with NdeI using the NEBuilder kit according to the manufacturer’s instructions (New England Biolabs). Construct was transformed into competent E. coli cells, and ligation was confirmed by restriction enzyme digestion of isolated plasmid DNA followed by Sanger sequencing (Source BioScience, Nottingham, UK). Confirmed plasmids were then transfected into L. mexicana cell line in which both NT1 and NT2 were doubly knocked out (SUPKO) and derived from L. mexicana Cas9 [64] as described. Clones grown in medium containing 50 μg/mL neomycin (G418) were collected for further confirmation by PCR with genomic DNA using a forward primer of the transporter gene and a reverse primer of the plasmid.
(§3) Uptake assays using radiolabeled trypanocides and/or nucleosides were carried out as described previously. Briefly, parasite cultures were harvested, washed twice in assay buffer (33 mM HEPES, 98 mM NaCl, 4.6 mM KCl, 0.5 mM CaCl2, 0.07 mM MgSO4, 5.8 mM NaH3PO4, 0.03 mM MgCl2, 23 mM NaHCO3, 14 mM D-glucose, pH 7.3), then resuspended and adjusted to a density of 1 × 10^8 cells/mL in assay buffer. The radiolabeled permeant in the presence or absence of different concentrations of potential inhibitors reconstituted in 100 μL assay buffer was deposited on top of 250 μL oil mix in microcentrifuge tubes; 1 × 10^7 parasites in 100 μL assay buffer were added to the tube and incubated for a pre-determined interval. The reaction was stopped by the addition of 1 mL of a high concentration of ice-cold unlabeled substrate in assay buffer (‘stop solution’) and centrifugation, or by immediate centrifugation at […] as appropriate. The microcentrifuge tubes were flash-frozen, and the bottom of each tube containing the cell pellet was cut off and transferred to a scintillation vial. Cell pellets were lysed in 2% SDS, after which scintillation fluid (Scintlogic U, Lablogic) was added, followed by overnight incubation in the dark. Scintillation was measured in a 300SL (Hidex) scintillation counter (Hidex). All the assays were conducted in triplicate and analysis was carried out using Microsoft Excel and GraphPad Prism. All kinetic parameters were obtained on at least 3 separate occasions.
(§4) The dose-dependent uptake assay allowed for the affinity of nucleoside analogs to different nucleoside transporters to be determined by measuring the extent to which the analogs compete with and inhibit the uptake of radiolabel adenosine. This allowed for the determination of biochemical parameters such as Km and Vmax through the application of the Michaelis–Menten equation V0 = Vmax([substrate]/([substrate] + Km)). The 50% Inhibitory Concentration (IC50) of the purines and pyrimidines and their analogs was determined from non-linear regression to sigmoid curves with variable slope (Prism 8), and the IC50 of the inhibitor and the Km of the labeled permeant were then used to calculate the inhibition constant (Ki) of the analogs through the Cheng–Prusoff equation: Ki = IC50/(1 + (L/Km)), where L denotes the radiolabel concentration. The calculated Ki was in turn used to determine the Gibbs free energy (ΔG^0) of the inhibitor–transporter interaction using the equation: ΔG^0 = -RTln(Ki), where R represents the gas constant and T symbolizes the absolute temperature in Kelvin [104].

[1] = target: T. congolense adenosine transporter; experiment: [3H]-adenosine uptake and its inhibition in T. congolense IL3000 bloodstream forms; type: cell-based, Trypanosoma congolense; settings: for Ki: 0.05 µM [3H]-adenosine, 30 s, IC50 converted to Ki, read-out: Ki on the transport of [3H]-adenosine; for ΔG0, Gibbs free energy of interaction: calculated from Km or Ki; for Ki values fold higher than those for the purines: inhibition of adenosine uptake
Description: as §3, §4

[2] = target: T. b. brucei P1 (TbP1/NT2); settings: cited from earlier work; for Ki: T. b. brucei bloodstream forms, read-out: Tbb P1 Ki
TvxNT3 = TvxNT3 (Trypanosoma vivax, UniProt F9WV62); experiment: cell-based; type: cell-based; settings: for remaining activity at 100 µM: read-out: [3H]-adenosine uptake remaining in presence of inhibitor; for ΔG0: Gibbs free energy of interaction, from Km or Ki; for δ(ΔG0): difference in ΔG0 relative to the parent purine (adenosine or inosine)
TvxNT3, sequence (F9WV62 entry or part of it): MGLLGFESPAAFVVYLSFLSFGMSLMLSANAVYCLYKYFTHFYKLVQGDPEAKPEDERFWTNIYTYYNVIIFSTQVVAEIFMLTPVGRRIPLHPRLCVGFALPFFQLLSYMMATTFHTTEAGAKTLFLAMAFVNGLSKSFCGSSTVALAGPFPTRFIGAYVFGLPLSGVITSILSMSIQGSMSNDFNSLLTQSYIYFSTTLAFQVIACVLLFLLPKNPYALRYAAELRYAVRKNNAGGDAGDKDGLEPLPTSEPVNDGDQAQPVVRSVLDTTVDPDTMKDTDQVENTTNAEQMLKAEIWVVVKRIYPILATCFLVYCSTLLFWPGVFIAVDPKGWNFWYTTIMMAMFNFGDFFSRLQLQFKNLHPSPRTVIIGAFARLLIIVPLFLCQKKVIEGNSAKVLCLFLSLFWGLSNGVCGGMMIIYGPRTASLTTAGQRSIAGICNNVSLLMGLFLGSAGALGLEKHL
Source text: as §2, §3, §4

[3] = Resistance Factor relative to SUPKO
[4] = resazurin, promastigotes, read-out: SUPKO EC50

| SMILES | Ki (TcoAT1) [µM] | ΔG0 (TcoAT1) [kcal/mol] | δ(ΔG0) (TcoAT1) | ΔG0 (TvxNT3) [kcal/mol] | δ(ΔG0) (TvxNT3) [kcal/mol] | other results |
| --- | --- | --- | --- | --- | --- | --- |
| Cc1ccc(C(=O)Nc2ccc(S(=O)(=O)O)c3cc(S(=O)(=O)O)cc(S(=O)(=O)O)c23)cc1NC(=O)c1cccc(NC(=O)Nc2cccc(C(=O)Nc3cc(C(=O)Nc4ccc(S(=O)(=O)O)c5cc(S(=O)(=O)O)cc(S(=O)(=O)O)c45)ccc3C)c2)c1 [suramin, reference compound] | – | – | – | – | – | EC50 (L. mexicana Cas9; Leishmania mexicana): > 100 µM; EC50 (L. mexicana SUPKO+TcoAT1; Leishmania mexicana): > 100 µM; EC50 (L. mexicana SUPKO; Leishmania mexicana, read-out: SUPKO EC50, resazurin, promastigotes): > 100 µM; EC50 (L. mexicana SUPKO+TvxNT3; Leishmania mexicana): > 100 µM |
| Nc1ncnc2c1c(-c1ccccc1)cn2C1OC(CO)C(O)C1O (centres unmarked) [TH1012, 7-phenyltubercidin] | 146 ± 58 | -5.23 | – | – | – | – |
| Nc1nc2c(ncn2[C@@H]2O[C@H](CO)[C@@H](O)[C@H]2O)c(=O)[nH]1 [Guanosine] | 0.8 ± 0.09 | -8.32 | 0.387 kcal/mol | -7.995 | 0.017 | Ki [1]: 1.06 ± 0.07 µM; ΔG0, Gibbs free energy of interaction [1]: -8.15 kcal/mol; Ki [2]: 1.8 ± 0.3 µM; Tbb P1 ΔG0 [2]: -7.82 kcal/mol; remaining activity at 100 µM (TvxNT3; 100 µM inhibitor, 50 nM [3H]-adenosine): < 25% |
| Nc1ccnc2c1ncn2[C@@H]1O[C@H](CO)[C@@H](O)[C@H]1O [1-deazaadenosine] | 1.03 ± 0.34 | -8.17 | 0.535 kcal/mol | – | – | – |
| COc1ncnc2c1ccn2[C@@H]1O[C@H](CO)[C@@H](O)[C@H]1O [CL4510, 6-methoxy-7-deazapurine riboside] | 226 ± 26 | -4.97 | – | -6.55 | – | EC50 (L. mexicana Cas9; resazurin, promastigotes): 0.39 ± 0.05 µM; SUPKO+TcoAT1 RF (SUPKO) (L. mexicana SUPKO+TcoAT1; [3]): 1.03; EC50 (L. mexicana SUPKO+TcoAT1; resazurin, promastigotes): 2.2 ± 0.03 µM; SUPKO RF (Cas9) (L. mexicana SUPKO; Resistance Factor = EC50(SUPKO)/EC50(Cas9)): 5.84; EC50 (L. mexicana SUPKO; [4]): 2.3 µM and 2.28 µM; SUPKO+TvxNT3 RF (SUPKO) (L. mexicana SUPKO+TvxNT3; [3]): 1.1; EC50 (L. mexicana SUPKO+TvxNT3; resazurin, promastigotes): 2.05 ± 0.04 µM; Ki (TvxNT3; 50 nM [3H]-adenosine, 90 s, IC50 converted to Ki, read-out: Ki on the transport of [3H]-adenosine): 16.1 ± 2.8 µM |
| OC[C@H]1O[C@@H](n2cnc3c(S)ncnc32)[C@H](O)[C@@H]1O [6-thioinosine] | – | – | – | -7.36 | – | – |
| Nc1ncnc2c1ncn2[C@H]1C[C@H](O)[C@@H](CO)O1 [2′-deoxyadenosine] | 0.5 ± 0.07 | -8.6 | 0.105 kcal/mol | -8.15 | 0.167 | – |
| Nc1nccc2c1ncn2[C@@H]1O[C@H](CO)[C@@H](O)[C@H]1O [3-deazaadenosine] | 138 ± 37 | -5.26 | 3.44 kcal/mol and 3.435 kcal/mol | – | – | – |
| OC[C@H]1O[C@@H](n2cnc3c(O)nccc32)[C@H](O)[C@@H]1O [3-deazainosine] | – | – | – | -6.12 | – | – |
| Nc1ncnc2c1ncn2[C@H]1CC[C@@H](CO)O1 [2′,3′-dideoxyadenosine] | 51.9 ± 2.6 | -5.83 | 2.856 kcal/mol | – | – | – |
| C[C@H]1O[C@@H](n2cnc3c(N)ncnc32)[C@H](O)[C@@H]1O [5′-deoxyadenosine] | 0.45 ± 0.08 | -8.65 | 0.043 kcal/mol | -8.13 | 0.151 | – |
| O=c1ccn([C@@H]2O[C@H](CO)[C@@H](O)[C@H]2O)c(=O)[nH]1 [Uridine] | 1470 ± 172 | -3.87 | 4.835 kcal/mol | -4.285 | -3.693 | Ki (TcoAT1; listed as URD): 147 µM; Ki [1]: 390 ± 9.1 µM; ΔG0, Gibbs free energy of interaction [1]: -4.64 kcal/mol; Ki values fold higher than those for the purines [1]: > 90 fold; Ki [2]: 830 ± 86 µM; Tbb P1 ΔG0 [2]: -4.47 kcal/mol |
| Nc1ncnc2[nH]cnc12 [Adenine] | 761 ± 103 | -4.25 | 4.446 kcal/mol | -7.658 | -0.32 | Ki (TcoAT1; listed as ADE): 786 µM; δ(ΔG0) (TvxNT3; listed as adenine): 0.32 kcal/mol; remaining activity at 100 µM (TvxNT3): < 25% |
| Cc1cn([C@H]2C[C@H](O)[C@@H](CO)O2)c(=O)[nH]c1=O [Thymidine] | 434 ± 46.4 | -4.59 | 4.113 kcal/mol | -4.391 | -3.587 | Ki (TcoAT1; listed as TMD): 49.6 µM; Ki [1]: 94.6 ± 11.5 µM; ΔG0, Gibbs free energy of interaction [1]: -5.5 kcal/mol; Ki values fold higher than those for the purines [1]: > 90 fold; Ki [2]: 44 ± 10 µM |
| Nc1ccn([C@@H]2O[C@H](CO)[C@@H](O)[C@H]2O)c(=O)n1 [Cytidine] | 1580 ± 69.2 | -3.82 | 4.878 kcal/mol | – | – | Ki [1]: 1180 ± 148 µM; ΔG0, Gibbs free energy of interaction [1]: -3.99 kcal/mol; Ki values fold higher than those for the purines [1]: > 90 fold; Ki [2]: > 250 µM |
| O=c1[nH]cnc2nc[nH]c12 [Hypoxanthine] | 61.2 ± 3.26 | -5.74 | 2.792 kcal/mol | -7.851 | -1.78 | δ(ΔG0) (TvxNT3; listed as hypoxanthine): 1.34 kcal/mol; remaining activity at 100 µM (TvxNT3): < 25% |
| NCCS[As](SCCN)c1ccc(Nc2nc(N)nc(N)n2)cc1 [melarsomine, reference compound] | – | – | – | – | – | EC50 (L. mexicana Cas9; resazurin, promastigotes): > 100 µM; EC50 (L. mexicana SUPKO+TcoAT1; resazurin, promastigotes): > 100 µM; EC50 (L. mexicana SUPKO; [4]): > 100 µM; EC50 (L. mexicana SUPKO+TvxNT3; resazurin, promastigotes): > 100 µM |
| OC[C@@H]1CC[C@H](n2cnc3c(O)ncnc32)O1 [2′,3′-dideoxyinosine] | 85.4 ± 7.1 | -5.54 | 2.99 kcal/mol | – | – | – |
| OC[C@H]1O[C@@H](n2cnc3cncnc32)[C@H](O)[C@@H]1O [Nebularine] | – | – | – | -7.27 | -0.703 | δ(ΔG0) (TvxNT3; listed as nebularine): 0.693 kcal/mol |
